Assay results reported in ChEMBL document CHEMBL4130529, “From PIM1 to PI3Kδ via GSK3β: Target Hopping through the Kinome” (ACS Med Chem Lett, 2017).

How the values were obtained:
[1] = biological target: T1, Phosphatidylinositol 4,5-bisphosphate 3-kinase catalytic subunit delta isoform (Homo sapiens, UniProt O00329); assay: Inhibition of PI3Kdelta (unknown origin) using PIP2 as substrate pretreated for 15 mins followed by substrate addition measured after 1 hr
T1 sequence (O00329 whole entry): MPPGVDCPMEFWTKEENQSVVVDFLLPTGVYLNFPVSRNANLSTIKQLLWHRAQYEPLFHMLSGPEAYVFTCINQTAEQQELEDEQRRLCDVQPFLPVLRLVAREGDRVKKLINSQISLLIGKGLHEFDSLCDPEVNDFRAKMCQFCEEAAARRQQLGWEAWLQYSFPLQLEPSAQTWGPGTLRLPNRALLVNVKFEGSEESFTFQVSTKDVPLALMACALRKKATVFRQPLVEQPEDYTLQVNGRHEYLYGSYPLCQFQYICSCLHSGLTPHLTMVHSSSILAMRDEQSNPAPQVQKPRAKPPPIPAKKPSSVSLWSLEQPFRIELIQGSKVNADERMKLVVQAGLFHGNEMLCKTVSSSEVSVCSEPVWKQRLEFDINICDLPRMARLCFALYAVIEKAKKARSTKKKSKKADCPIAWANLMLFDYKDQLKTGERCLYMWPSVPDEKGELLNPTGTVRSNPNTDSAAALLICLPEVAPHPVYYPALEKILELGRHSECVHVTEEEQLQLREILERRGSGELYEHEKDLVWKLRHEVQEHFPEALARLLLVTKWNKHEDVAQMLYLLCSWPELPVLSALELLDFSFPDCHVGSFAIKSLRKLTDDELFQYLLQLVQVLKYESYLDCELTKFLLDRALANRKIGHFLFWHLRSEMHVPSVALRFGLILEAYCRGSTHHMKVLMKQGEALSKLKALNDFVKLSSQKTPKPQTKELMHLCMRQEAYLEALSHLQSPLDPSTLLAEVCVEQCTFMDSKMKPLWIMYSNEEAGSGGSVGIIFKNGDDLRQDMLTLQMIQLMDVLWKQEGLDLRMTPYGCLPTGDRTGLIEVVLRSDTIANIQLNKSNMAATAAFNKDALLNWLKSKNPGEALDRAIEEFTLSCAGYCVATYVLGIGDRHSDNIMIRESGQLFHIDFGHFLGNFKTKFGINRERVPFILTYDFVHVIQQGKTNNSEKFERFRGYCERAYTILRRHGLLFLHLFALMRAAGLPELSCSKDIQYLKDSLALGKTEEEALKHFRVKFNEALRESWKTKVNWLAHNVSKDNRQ

[2] = biological target: Phosphatidylinositol 4,5-bisphosphate 3-kinase catalytic subunit gamma isoform (Homo sapiens, UniProt P48736); assay: Inhibition of PI3Kgamma (unknown origin) using PIP2 as substrate pretreated for 15 mins followed by substrate addition measured after 1 hr
[3] = biological target: Phosphatidylinositol 4,5-bisphosphate 3-kinase catalytic subunit alpha isoform (Homo sapiens, UniProt P42336); assay: Inhibition of PI3Kalpha (unknown origin) using PIP2 as substrate pretreated for 15 mins followed by substrate addition measured after 1 hr
[4] = biological target: Phosphatidylinositol 4,5-bisphosphate 3-kinase catalytic subunit beta isoform (Homo sapiens, UniProt P42338); assay: Inhibition of PI3Kbeta (unknown origin) using PIP2 as substrate pretreated for 15 mins followed by substrate addition measured after 1 hr
[5] = biological target: Serine/threonine-protein kinase pim-1 (Homo sapiens, UniProt P11309); assay: Inhibition of PIM1 (unknown origin) using TAMRA-ERMRPRKRQGSVRRRV-NH2 as substrate pretreated for 30 mins followed by substrate addition measured after 1 hr by IMAP assay
[6] = biological target: T2, Glycogen synthase kinase-3 beta (Homo sapiens, UniProt P49841); assay: Inhibition of GSK3beta (unknown origin) after 1 hr by fluorescence polarization assay
[7] = biological target: T2, Glycogen synthase kinase-3 beta; assay: Inhibition of human GSK3beta using YRRAAVPPSPSLSRHSSPHQ(pS)EDEEE as substrate in presence of [gamma-33P]-ATP
Homo sapiens = species: Homo sapiens; assay: Selectivity ratio of pIC50 for ALK5 (unknown origin) to pIC50 for PI3Kdelta (unknown origin)

Chain of Phosphatidylinositol 4,5-bisphosphate 3-kinase catalytic subunit gamma isoform (P48736 whole entry, canonical isoform): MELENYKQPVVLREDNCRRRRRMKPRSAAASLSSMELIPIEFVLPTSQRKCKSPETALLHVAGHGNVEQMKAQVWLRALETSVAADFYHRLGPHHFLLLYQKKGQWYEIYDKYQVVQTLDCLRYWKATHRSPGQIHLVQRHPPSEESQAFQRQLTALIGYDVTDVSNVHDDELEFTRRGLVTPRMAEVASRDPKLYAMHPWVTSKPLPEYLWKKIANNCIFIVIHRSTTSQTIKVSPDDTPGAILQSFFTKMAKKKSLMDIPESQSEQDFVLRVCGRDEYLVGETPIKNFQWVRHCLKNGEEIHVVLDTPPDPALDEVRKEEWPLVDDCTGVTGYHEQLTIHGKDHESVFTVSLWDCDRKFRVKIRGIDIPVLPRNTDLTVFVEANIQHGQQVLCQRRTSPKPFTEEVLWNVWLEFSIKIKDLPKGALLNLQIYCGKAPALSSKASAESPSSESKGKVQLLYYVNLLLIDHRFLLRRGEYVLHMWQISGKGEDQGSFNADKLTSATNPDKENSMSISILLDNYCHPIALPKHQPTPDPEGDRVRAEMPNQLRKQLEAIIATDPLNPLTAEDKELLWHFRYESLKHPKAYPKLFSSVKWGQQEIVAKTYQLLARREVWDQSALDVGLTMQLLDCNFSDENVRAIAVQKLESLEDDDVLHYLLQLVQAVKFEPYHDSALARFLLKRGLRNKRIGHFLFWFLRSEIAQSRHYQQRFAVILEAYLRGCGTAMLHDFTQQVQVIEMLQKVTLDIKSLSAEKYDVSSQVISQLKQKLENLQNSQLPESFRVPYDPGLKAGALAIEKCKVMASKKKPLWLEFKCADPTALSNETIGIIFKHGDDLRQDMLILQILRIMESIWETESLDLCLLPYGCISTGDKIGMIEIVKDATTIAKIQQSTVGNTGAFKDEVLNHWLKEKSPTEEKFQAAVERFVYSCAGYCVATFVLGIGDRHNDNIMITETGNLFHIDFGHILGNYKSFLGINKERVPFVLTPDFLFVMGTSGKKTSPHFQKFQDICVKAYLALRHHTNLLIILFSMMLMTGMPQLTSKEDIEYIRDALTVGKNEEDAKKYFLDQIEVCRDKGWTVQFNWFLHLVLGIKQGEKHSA
Chain of Serine/threonine-protein kinase pim-1 (P11309 whole entry): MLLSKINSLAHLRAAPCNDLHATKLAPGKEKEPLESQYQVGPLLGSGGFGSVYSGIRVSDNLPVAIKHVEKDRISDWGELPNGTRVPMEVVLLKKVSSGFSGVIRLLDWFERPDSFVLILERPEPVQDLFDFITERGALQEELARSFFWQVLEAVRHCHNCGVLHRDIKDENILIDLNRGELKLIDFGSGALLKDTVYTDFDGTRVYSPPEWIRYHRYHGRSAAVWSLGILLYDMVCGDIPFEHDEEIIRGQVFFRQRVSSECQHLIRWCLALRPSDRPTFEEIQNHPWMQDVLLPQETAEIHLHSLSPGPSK
Chain of Phosphatidylinositol 4,5-bisphosphate 3-kinase catalytic subunit beta isoform (P42338 whole entry, canonical isoform): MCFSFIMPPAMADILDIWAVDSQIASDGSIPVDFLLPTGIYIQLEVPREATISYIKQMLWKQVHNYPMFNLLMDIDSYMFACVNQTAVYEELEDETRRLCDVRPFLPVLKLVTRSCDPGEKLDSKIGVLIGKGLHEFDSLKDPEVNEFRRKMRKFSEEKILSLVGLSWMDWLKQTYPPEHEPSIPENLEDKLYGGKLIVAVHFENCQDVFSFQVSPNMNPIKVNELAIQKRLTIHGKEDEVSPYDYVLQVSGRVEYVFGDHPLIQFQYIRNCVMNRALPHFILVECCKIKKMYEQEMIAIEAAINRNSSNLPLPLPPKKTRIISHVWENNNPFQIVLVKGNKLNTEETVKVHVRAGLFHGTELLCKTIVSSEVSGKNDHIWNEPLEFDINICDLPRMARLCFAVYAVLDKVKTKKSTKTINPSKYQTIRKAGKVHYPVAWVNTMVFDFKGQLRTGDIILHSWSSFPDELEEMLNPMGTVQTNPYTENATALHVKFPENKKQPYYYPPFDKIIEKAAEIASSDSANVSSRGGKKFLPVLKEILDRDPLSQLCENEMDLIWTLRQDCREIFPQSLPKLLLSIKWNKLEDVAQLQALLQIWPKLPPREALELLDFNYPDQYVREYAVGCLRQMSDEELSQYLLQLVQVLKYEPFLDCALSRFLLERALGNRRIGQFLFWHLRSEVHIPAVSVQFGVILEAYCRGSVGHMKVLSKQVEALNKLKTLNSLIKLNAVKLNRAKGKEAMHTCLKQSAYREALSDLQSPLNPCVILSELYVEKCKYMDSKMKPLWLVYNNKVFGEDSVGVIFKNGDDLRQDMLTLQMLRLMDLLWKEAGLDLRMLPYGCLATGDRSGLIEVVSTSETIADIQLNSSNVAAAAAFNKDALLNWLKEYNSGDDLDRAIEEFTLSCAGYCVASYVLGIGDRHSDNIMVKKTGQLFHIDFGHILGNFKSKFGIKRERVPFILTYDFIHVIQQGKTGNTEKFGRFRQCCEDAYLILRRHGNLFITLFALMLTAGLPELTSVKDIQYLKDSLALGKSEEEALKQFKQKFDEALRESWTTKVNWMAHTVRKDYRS
T2 sequence (P49841 whole entry): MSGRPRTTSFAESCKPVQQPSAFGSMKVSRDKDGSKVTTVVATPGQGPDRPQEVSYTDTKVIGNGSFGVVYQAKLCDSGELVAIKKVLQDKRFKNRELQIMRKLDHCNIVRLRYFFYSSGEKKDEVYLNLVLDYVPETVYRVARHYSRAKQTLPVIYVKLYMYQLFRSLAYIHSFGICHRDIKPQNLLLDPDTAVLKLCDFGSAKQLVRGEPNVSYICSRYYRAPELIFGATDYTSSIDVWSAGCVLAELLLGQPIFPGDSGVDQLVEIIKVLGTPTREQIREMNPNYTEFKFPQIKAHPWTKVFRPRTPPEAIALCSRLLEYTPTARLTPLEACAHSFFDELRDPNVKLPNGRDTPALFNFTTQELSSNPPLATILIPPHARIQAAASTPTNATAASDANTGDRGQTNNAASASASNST
Chain of Phosphatidylinositol 4,5-bisphosphate 3-kinase catalytic subunit alpha isoform (P42336 whole entry, canonical isoform): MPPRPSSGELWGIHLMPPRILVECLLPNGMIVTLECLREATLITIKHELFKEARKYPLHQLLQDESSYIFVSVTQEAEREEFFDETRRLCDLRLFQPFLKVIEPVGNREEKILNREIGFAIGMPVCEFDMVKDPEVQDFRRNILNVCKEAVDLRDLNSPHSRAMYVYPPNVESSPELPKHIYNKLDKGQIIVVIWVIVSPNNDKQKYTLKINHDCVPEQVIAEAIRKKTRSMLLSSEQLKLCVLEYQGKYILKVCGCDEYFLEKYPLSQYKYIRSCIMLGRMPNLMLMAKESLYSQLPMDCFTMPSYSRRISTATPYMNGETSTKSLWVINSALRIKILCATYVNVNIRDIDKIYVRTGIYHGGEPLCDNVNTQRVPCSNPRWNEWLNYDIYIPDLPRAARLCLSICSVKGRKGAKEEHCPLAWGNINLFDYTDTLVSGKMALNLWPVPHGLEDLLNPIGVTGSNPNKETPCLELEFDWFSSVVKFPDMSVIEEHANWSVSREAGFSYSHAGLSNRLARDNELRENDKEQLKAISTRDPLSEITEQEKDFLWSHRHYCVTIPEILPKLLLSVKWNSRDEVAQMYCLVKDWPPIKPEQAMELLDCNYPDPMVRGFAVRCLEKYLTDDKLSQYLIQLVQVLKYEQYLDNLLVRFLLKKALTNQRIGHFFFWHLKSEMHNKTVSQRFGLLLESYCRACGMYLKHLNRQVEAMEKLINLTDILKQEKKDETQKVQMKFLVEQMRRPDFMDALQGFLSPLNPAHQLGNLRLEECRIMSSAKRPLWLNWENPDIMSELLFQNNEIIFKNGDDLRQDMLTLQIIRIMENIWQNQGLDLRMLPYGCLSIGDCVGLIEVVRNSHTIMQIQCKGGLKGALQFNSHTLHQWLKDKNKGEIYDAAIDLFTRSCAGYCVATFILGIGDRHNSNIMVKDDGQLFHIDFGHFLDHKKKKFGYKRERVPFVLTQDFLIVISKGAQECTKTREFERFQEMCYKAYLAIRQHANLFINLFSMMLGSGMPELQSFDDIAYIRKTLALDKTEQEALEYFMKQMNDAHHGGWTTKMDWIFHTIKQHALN

Compound | IC50 [1] [µM] | IC50 [2] [µM] | IC50 [3] [µM] | IC50 [4] [µM] | IC50 [5] [µM] | IC50 [6] [µM] | IC50 [7] [µM] | Ratio IC50 (Homo sapiens)
O=C(Nc1cc(-c2cccc(O)c2)cc2[nH]ncc12)C1CC1 | 3.98 | 7.94 | 20 | 20 | 2.51 | 1.26 |  | 
O=C(Nc1cc(-c2cccc3[nH]ccc23)cc2[nH]ncc12)C1CC1 | 1 | > 25.1 | > 25.1 | 25.1 | 15.8 | 7.94 |  | 
O=C(Nc1cc(-c2ccccc2)cc2[nH]ncc12)C1CC1 | 20 | 25.1 | 25.1 | > 25.1 | 15.8 | 31.6 |  | 
O=C(Nc1cc(-c2ccc(O)cc2)cc2[nH]ncc12)C1CC1 | 6.31 | > 25.1 | 25.1 | 25.1 | 0.316 | 0.631 |  | 
O=C(Nc1n[nH]c2cc(-c3ccc(O)cc3)ccc12)C1CC1 | 25.1 | > 25.1 | > 25.1 | > 25.1 |  |  |  | 
O=C(Nc1cc(-c2ccc3cc[nH]c3c2)cc2[nH]ncc12)c1ccccn1 | 3.16 | 15.8 | 25.1 | 12.6 |  | > 25.1 |  | 
O=C(Nc1cc(-c2cccc3[nH]ccc23)cc2[nH]ncc12)c1ccccn1 |  |  |  |  | 2.51 | 3.16 | 20 | < 10
O=C(Nc1cc(-c2cccc(O)c2)cc2[nH]ncc12)c1ccccn1 | 1.58 | 7.94 | 25.1 | 31.6 | 2 | 1.58 |  | 
O=C(Nc1cc(-c2ccc(O)cc2)cc2[nH]ncc12)c1ccccn1 | 0.501 | 5.01 | > 25.1 | > 25.1 | 0.126 |  | 1.58 | 
